Test: Average particle diameter of the liposomes in each preparation (Zetasizer Nano ZS)
Format: physicochemical
Details: liposome preparation of Example 118: compound/PEG-DMPE/DSPC/cholesterol with apo-b siRNA
Description: Preparations were produced using the compounds obtained in Examples 1 to 117, as follows.
Anti-APO-B siRNA was used as the nucleic acid. Anti-APO-B siRNA suppresses expression of an apolipoprotein-B (hereinafter, “apo-b”) gene and has a sense strand with the base sequence 5′-GmUCAmUCACACmUGAAmUACCAAmU-3′ (the sugars attached to the bases appended with m are 2′-O-methyl-substituted riboses), and an antisense strand with the base sequence 5′-[…]-3′ (the 5′-end is phosphorylated). The sense strand and the antisense strand were obtained from Nippon EGT or Hokkaido System Science Co., Ltd., and annealed to prepare the nucleic acid (hereinafter, “apo-b siRNA”).
A solution comprising the constituent components of a lipid membrane was prepared by dissolving each of the weighed samples in 90 vol % ethanol in 8.947/1.059/5.708/13.697 mmol/L [compounds 1 to 117 obtained in Examples 1 to 117/1,2-dimyristoyl-sn-glycero-3-phosphoethanolamine-A-(methoxy(polyethylene glycol)-2000) (PEG-DMPE, N-(carbonylmethoxypolyethylene glycol 2000)-1,2-dimyristoyl-sn-glycero-3-phosphoethanolamine sodium salt, NOF Corporation)/distearoylphosphatidyl choline (DSPC, 1,2-distearoyl-sn-glycero-3-phosphocholine, NOF Corporation)/cholesterol (Avanti Polar Lipids)]. Separately, apo-b siRNA/distilled water (24 mg/mL) was diluted with a Tris-EDTA buffer (200 mM Tris-HCl, 20 mM EDTA, Invitrogen) and a 20 mM citric acid buffer (pH 5.0) to prepare a 1.5 mg/mL apo-b siRNA aqueous solution (2 mM Tris-EDTA buffer, pH 5.0).
The resulting lipid solution was heated to 37° C., and a […] portion was transferred to a preparation container. The apo-b siRNA aqueous solution (100 μL) was then added thereto while being stirred. Then, a 20 mM citric acid buffer (containing 300 mM NaCl, pH 6.0; 200 μL) was added to the lipid nucleic acid mixed suspension (200 μL) while being stirred. The siRNA concentration was brought to 10 μM by dropping a Dulbecco phosphate buffer (DPBS, Invitrogen; 662 μL), and preparations (compositions comprising compounds 1 to 117 and the nucleic acid) were obtained.
The average particle diameter of the liposomes in each preparation was measured with a particle diameter measurement device (Malvern; Zetasizer Nano ZS).

Question: For `CCCCC/C=C\C/C=C\CCCCCCCCCCOCC1CN(C(=O)[C@@H](N)CCCCN)C[C@H]1COCCCCCCCCCC/C=C\C/C=C\CCCCC` (stereo partly drawn) [Compound 115, trans-1-((S)-2,6-Diaminohexanoyl)-3,4-bis(((11Z,14Z)-icos-11,14-dienyloxy)methyl) pyrrolidine], which “Particle diameter of Preparetion” value is on record?
Answer: The value was 152.8 nm.

Question: For `CCCCC/C=C\C/C=C\CCCCCCCC(=O)OC1CN(C(=O)[C@@H](N)CCCCN)C[C@H]1OC(=O)CCCCCCC/C=C\C/C=C\CCCCC` (stereo partly drawn) [Compound 66, (3R,4R)-1-((S)-2,6-Diaminohexanoyl)pyrrolidine-3,4-diyl di((9Z,12Z)-octadec-9,12-enoate)], which “Particle diameter of Preparetion” value is on record?
Answer: The value was 137.4 nm.

Question: Which “Particle diameter of Preparetion” value does the source give for `CCCCC/C=C\C/C=C\CCCCCCCCO[C@@H]1CN(CC(C)O)C[C@H]1OCCCCCCCC/C=C\C/C=C\CCCCC` (mixture of isomers) [Compound 54, 1-((3R,4R)-3,4-bis((9Z,12Z)-Octadec-9,12-dienyloxy)pyrrolidine-1-yl)propan-2-ol] here?
Answer: The value was 148.9 nm.

Question: With `CCCCC/C=C\C/C=C\CCCCCCCC(=O)OC1CN(C(=O)CN)C[C@H]1OC(=O)CCCCCCC/C=C\C/C=C\CCCCC` (stereo partly drawn) [Compound 65, (3R,4R)-1-(2-aminoacetyl)pyrrolidine-3,4-diyl di((9Z,12Z)-octadec-9,12-enoate)] as the molecule, how does the “Particle diameter of Preparetion” value read?
Answer: The value was 128.9 nm.

Question: With `CCCCC/C=C\C/C=C\CCCCCCCCOC1CN(CCCN(C)C)C[C@H]1OCCCCCCCC/C=C\C/C=C\CCCCC` (stereo partly drawn) [Compound 59, (3R,4R)-1-(3-N,N-Dimethylaminopropyl)-3,4-bis((9Z,12Z)-octadec-9,12-dienyloxy)pyrrolidine] as the molecule, how does the “Particle diameter of Preparetion” value read?
Answer: Its value is 116.7 nm.

Question: For `CCCCC/C=C\C/C=C\CCCCCCCCO[C@H]1CNC[C@@H]1OCCCCCCCC/C=C\C/C=C\CCCCC` [Compound 43, (3S,4S)-3,4-bis((9Z,12Z)-Octadec-9,12-dienyloxy)pyrrolidine], which “Particle diameter of Preparetion” value is on record?
Answer: The value was 150.0 nm.

Question: Which “Particle diameter of Preparetion” value does the source give for `CCCCC/C=C\C/C=C\CCCCCCCC(=O)OC1CN(CC(O)CO)C[C@H]1OC(=O)CCCCCCC/C=C\C/C=C\CCCCC` (stereo partly drawn) [Compound 53, (3R,4R)-1-(2,3-diHydroxypropyl)pyrrolidine-3,4-diyl di((9Z,12Z)-octadec-9,12-enoate)] here?
Answer: The value was 152.4 nm.

Question: With `CCCCC/C=C\C/C=C\CCCCCCCCO[C@H]1CN(C)C[C@@H]1OCCCCCCCC/C=C\C/C=C\CCCCC` [Compound 50, (3S,4S)-1-Methyl-3,4-bis((9Z,12Z)-octadec-9,12-dienyloxy)pyrrolidine] as the molecule, how does the “Particle diameter of Preparetion” value read?
Answer: Its value is 129.2 nm.

Question: For `CCCCC/C=C\C/C=C\CCCCCCCCOC1CN(CC(O)COC)C[C@H]1OCCCCCCCC/C=C\C/C=C\CCCCC` (stereo partly drawn) [Compound 55, 1-(3R,4R)-3,4-bis(((9Z,12Z)-Octadec-9,12-dienyloxy)pyrrolidine-1-yl)-3-methoxypropan-2-ol], which “Particle diameter of Preparetion” value is on record?
Answer: The value was 139.6 nm.

Question: Which “Particle diameter of Preparetion” value does the source give for `CCCCC/C=C\C/C=C\CCCCCCCCOC1CN(CCC(=O)N(C)C)C[C@H]1OCCCCCCCC/C=C\C/C=C\CCCCC` (stereo partly drawn) [Compound 58, 3-((3R,4R)-3,4-bis((9Z,12Z)-Octadec-9,12-dienyloxy)pyrrolidin-1-yl)-N,N-dimethyl propanamide] here?
Answer: Its value is 151.8 nm.

Same assay, conditions: preparations of Comparative Examples 1 to 8, made as in Example 118 with apo-b siRNA

Question: Which “average particle diameter of the liposomes in the preparation” value (“average particle diameter” below) does the source give for `CCCCCCCC/C=C\CCCCCCCC(=O)OCC(C[N+](C)(C)C)OC(=O)CCCCCCC/C=C\CCCCCCCC.[Cl-]` (centres unmarked) [DOTAP, N-(2,3-di-(9-(Z)-octadecenoyloxy))-prop-1-yl-N,N,N-trimethylammonium chloride, reference compound] here?
Answer: Its value is 104.0 nm.

Question: For `CCCCC/C=C\C/C=C\CCCCCCCC(=O)OCCN(C)CCOC(=O)CCCCCCC/C=C\C/C=C\CCCCC` [Compound A-5, N-Methyl-N,N-bis(2-((9Z,12Z)-1-oxooctadec-9,12-dienyloxy)ethyl)amine, reference compound], which “average particle diameter” value is on record?
Answer: Its value is 136.4 nm.

Question: With `CCCCC/C=C\C/C=C\CCCCCCCCO[C@@H]1CN(Cc2ccccc2)C[C@H]1OCCCCCCCC/C=C\C/C=C\CCCCC` [Compound VI-3, (3R,4R)-1-Benzyl-3,4-bis((9Z,12Z)-octadec-9,12-dienyloxy)pyrrolidine, reference compound] as the molecule, how does the “average particle diameter” value read?
Answer: Its value is 167.8 nm.

Question: Which “average particle diameter” value does the source give for `CCCCCCCC/C=C\CCCCCCCCO[C@@H]1CN(Cc2ccccc2)C[C@H]1OCCCCCCCC/C=C\CCCCCCCC` [Compound VI-4, (3R,4R)-1-Benzyl-3,4-bis((Z)-octadec-9-enyloxy)pyrrolidine, reference compound] here?
Answer: The value was 157.8 nm.

Question: Which “average particle diameter” value does the source give for `CCCCC/C=C\C/C=C\CCCCCCCC(=O)O[C@@H]1CN(C)C[C@H]1OC(=O)CCCCCCC/C=C\C/C=C\CCCCC` [Compound A-3, (3R,4R)-1-Methylpyrrolidine-3,4-diyl di((9Z,12Z)-octadec-9,12-dienoate), reference compound] here?
Answer: The value was 141.0 nm.

Question: For `CCCCCCCC/C=C\CCCCCCCC(=O)OCCN(C)CCOC(=O)CCCCCCC/C=C\CCCCCCCC` [Compound A-6, N-Methyl-N,N-bis(2-((Z)-1-oxooctadec-9-enyloxy)ethyl)amine, reference compound], which “average particle diameter” value is on record?
Answer: The value was 139.5 nm.

Question: With `CCCCCCCC/C=C\CCCCCCCC(=O)O[C@@H]1CN(C)C[C@H]1OC(=O)CCCCCCC/C=C\CCCCCCCC` [Compound A-4, (3R,4R)-1-Methylpyrrolidine-3,4-diyl di((Z)-octadec-9-enoate), reference compound] as the molecule, how does the “average particle diameter” value read?
Answer: The value was 131.1 nm.
